The experiment deals with T1, ALK2 (Homo sapiens, UniProt Q04771).
T1 construct: purchased ThermoFisher Scientific (Life Technologies)
T1 sequence (Q04771 21-509): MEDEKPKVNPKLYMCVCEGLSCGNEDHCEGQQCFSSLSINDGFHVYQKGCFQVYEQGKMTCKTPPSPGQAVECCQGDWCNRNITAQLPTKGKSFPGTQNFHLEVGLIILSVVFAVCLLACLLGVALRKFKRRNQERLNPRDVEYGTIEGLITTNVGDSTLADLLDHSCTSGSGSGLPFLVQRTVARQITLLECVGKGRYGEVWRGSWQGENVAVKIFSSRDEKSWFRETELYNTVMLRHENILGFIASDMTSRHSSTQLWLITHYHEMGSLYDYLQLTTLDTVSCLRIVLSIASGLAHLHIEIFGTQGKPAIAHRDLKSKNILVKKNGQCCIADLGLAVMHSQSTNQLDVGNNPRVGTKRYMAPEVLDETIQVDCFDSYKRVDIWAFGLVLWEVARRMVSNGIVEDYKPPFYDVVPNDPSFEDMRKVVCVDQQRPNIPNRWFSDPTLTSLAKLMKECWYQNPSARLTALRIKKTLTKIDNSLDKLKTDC
The experiment is described as follows: LanthaScreen Eu Kinase Binding Assay, ALK2 inhibition. The settings on record: 1 micromolar concentration. The protocol:
Biochemical assays to measure the inhibitory effects of the compounds were performed by ThermoFisher Scientific (Life Technologies). ALK2 inhibition was tested using LanthaScreen™ Eu Kinase Binding Assay screening protocol.

Molecules are shown by their SMILES.

Take `CNCCC(C)c1nc(Nc2cn(-c3cc(OC)c(OC)c(OC)c3)cn2)c2cnn(C(C)C)c2n1` (stereo not drawn) [Compound 50a, 1-isopropyl-6-(4-(methylamino)butan-2-yl)-N-(1-(3,4,5-trimethoxyphenyl)-1H-imidazol-4-yl)-1H-pyrazolo[3,4-d]pyrimidin-4-amine]: the inhibition at 1 µM is greater than 50%.
Turning to `COc1cc(-n2cnc(Nc3nc(C4CC(OCc5ccccc5)C4)nc4c3cnn4C(C)C)c2)cc(OC)c1OC` (stereo not drawn) [Compound 57e, 6-(3-(benzyloxy)cyclobutyl)-1-isopropyl-N-(1-(3,4,5-trimethoxyphenyl)-1H-imidazol-4-yl)-1H-pyrazolo[3,4-d]pyrimidin-4-amine], the inhibition at 1 µM was greater than 50%.
As for `CCn1ncc2c(Nc3cn(-c4cc(OC)c(OC)c(OC)c4)cn3)nc(C(C)C)nc21` [Compound 23c, 1-ethyl-6-isopropyl-N-(1-(3,4,5-trimethoxyphenyl)-1H-imidazol-4-yl)-1H-pyrazolo[3,4-d]pyrimidin-4-amine], the figure is greater than 50%; as for `CCCC(C)n1ncc2c(Nc3cn(-c4cc(OC)c(OC)c(OC)c4)cn3)nc(C(C)C)nc21` (stereo not drawn) [Compound 15e, 6-isopropyl-1-(pentan-2-yl)-N-(1-(3,4,5-trimethoxyphenyl)-1H-imidazol-4-yl)-1H-pyrazolo[3,4-d]pyrimidin-4-amine], greater than 50%; as for `C=Cc1nc(Nc2cn(-c3cc(OC)c(OC)c(OC)c3)cn2)c2cnn(C(C)C)c2n1` [Compound 104a, 1-isopropyl-N-(1-(3,4,5-trimethoxyphenyl)-1H-imidazol-4-yl)-6-vinyl-1H-pyrazolo[3,4-d]pyrimidin-4-amine], greater than 50%.
The molecule `COc1cc(-n2cnc(Nc3nc(C(C)C)nn4cccc34)c2)cc(OC)c1OC` [Compound 67a, 2-isopropyl-N-(1-(3,4,5-trimethoxyphenyl)-1H-imidazol-4-yl)pyrrolo[2,1-f][1,2,4]triazin-4-amine] registered an inhibition at 1 µM greater than 50%.
With `COc1cc(-n2cnc(Nc3nc(C4CC4)nc4c3cnn4C(C)(C)C)c2)cc(OC)c1OC` [Compound 112d, 1-(tert-butyl)-6-cyclopropyl-N-(1-(3,4,5-trimethoxyphenyl)-1H-imidazol-4-yl)-1H-pyrazolo[3,4-d]pyrimidin-4-amine] the figure was greater than 50%; with `COc1cc(-n2cnc(Nc3nc(C(C)C)c4sccc4n3)c2)cc(OC)c1OC` [Compound 54a, 4-isopropyl-N-(1-(3,4,5-trimethoxyphenyl)-1H-imidazol-4-yl)thieno[3,2-d]pyrimidin-2-amine], greater than 50%; with `COc1cc(-n2cnc(Nc3nc(C(F)(F)F)nc4[nH]ncc34)c2)cc(OC)c1OC` [Compound 25b, 6-(trifluoromethyl)-N-(1-(3,4,5-trimethoxyphenyl)-1H-imidazol-4-yl)-1H-pyrazolo[3,4-d]pyrimidin-4-amine], greater than 50%.
The molecule `COc1cc(-n2cnc(Nc3nc(C4CC4)nc4c3cnn4C3CC3)c2)cc(OC)c1OC` [Compound 116d, 1,6-dicyclopropyl-N-(1-(3,4,5-trimethoxyphenyl)-1H-imidazol-4-yl)-1H-pyrazolo[3,4-d]pyrimidin-4-amine] yielded an inhibition at 1 µM greater than 50%.
`COc1cc2nc(C(C)C)nc(Nc3cn(-c4cc(OC)c(OC)c(OC)c4)cn3)c2cc1OC` [Compound 79a, 2-isopropyl-6,7-dimethoxy-N-(1-(3,4,5-trimethoxyphenyl)-1H-imidazol-4-yl)quinazolin-4-amine] had an inhibition at 1 µM of less than 50%.
Molecule `COc1cc(-n2cnc(Nc3nc(C(C)C)nc4ncccc34)c2)cc(OC)c1OC` [Compound 102e, 2-isopropyl-N-(1-(3,4,5-trimethoxyphenyl)-1H-imidazol-4-yl)pyrido[2,3-d]pyrimidin-4-amine] gave an inhibition at 1 µM greater than 50%.
In turn, `COc1cc(-n2cnc(Nc3nc(C(C)C)nc4c3cnn4CC3CCCC3)c2)cc(OC)c1OC` [Compound 24c, 1-(cyclopentylmethyl)-6-isopropyl-N-(1-(3,4,5-trimethoxyphenyl)-1H-imidazol-4-yl)-1H-pyrazolo[3,4-d]pyrimidin-4-amine] registered an inhibition at 1 µM greater than 50%.
As for `C=C(C)c1nc(Nc2cn(-c3cc(OC)c(OC)c(OC)c3)cn2)c2cccnc2n1` [Compound 82c, 2-(prop-1-en-2-yl)-N-(1-(3,4,5-trimethoxyphenyl)-1H-imidazol-4-yl)pyrido[2,3-d]pyrimidin-4-amine], the figure is greater than 50%.
`COc1cc(-n2cnc(Nc3nc(C(C)C)nc4c3cnn4C(C)C)c2)cc(OC)c1OC` [Compound 4a, 1,6-diisopropyl-N-(1-(3,4,5-trimethoxyphenyl)-1H-imidazol-4-yl)-1H-pyrazolo[3,4-d]pyrimidin-4-amine] came in with an inhibition at 1 µM greater than 50%.
Consider `COc1cc(-n2cnc(Nc3nc(C)c4cnn(C(C)C)c4n3)c2)cc(OC)c1OC` [Compound 11b, 1-isopropyl-4-methyl-N-(1-(3,4,5-trimethoxyphenyl)-1H-imidazol-4-yl)-1H-pyrazolo[3,4-d]pyrimidin-6-amine], for which the inhibition at 1 µM is greater than 50%.
As for `COCCc1nc(Nc2cn(-c3cc(OC)c(OC)c(OC)c3)cn2)c2cnn(C(C)C)c2n1` [Compound 30e, 1-isopropyl-6-(2-methoxyethyl)-N-(1-(3,4,5-trimethoxyphenyl)-1H-imidazol-4-yl)-1H-pyrazolo[3,4-d]pyrimidin-4-amine], the figure is greater than 50%.
With `C=C(C)c1nc2c(c(Nc3cn(-c4cc(OC)c(OC)c(OC)c4)cn3)n1)CCCC2` [Compound 88c, 2-(prop-1-en-2-yl)-N-(1-(3,4,5-trimethoxyphenyl)-1H-imidazol-4-yl)-5,6,7,8-tetrahydroquinazolin-4-amine] the figure was greater than 50%.
Turning to `C=C(C)c1nc(Nc2cn(-c3cc(OC)c(OC)c(OC)c3)cn2)c2sc(C)cc2n1` [Compound 84c, 6-methyl-2-(prop-1-en-2-yl)-N-(1-(3,4,5-trimethoxyphenyl)-1H-imidazol-4-yl)thieno[3,2-d]pyrimidin-4-amine], the inhibition at 1 µM is greater than 50%.
Take `COc1cc(-n2cnc(Nc3nc(C(C)C)nc4c3cnn4-c3c(F)cccc3F)c2)cc(OC)c1OC` [Compound 43d, 1-(2,6-difluorophenyl)-6-isopropyl-N-(1-(3,4,5-trimethoxyphenyl)-1H-imidazol-4-yl)-1H-pyrazolo[3,4-d]pyrimidin-4-amine]: the inhibition at 1 µM was greater than 50%.
`COc1cc(-n2cnc(Nc3nc(C4CC(O)C4)nc4c3cnn4C(C)C)c2)cc(OC)c1OC` (stereo not drawn) [Compound 58a, 3-(1-isopropyl-4-((1-(3,4,5-trimethoxyphenyl)-1H-imidazol-4-yl)amino)-1H-pyrazolo[3,4-d]pyrimidin-6-yl)cyclobutanol] had an inhibition at 1 µM greater than 50%.
With `COc1cc(-n2cnc(Nc3nc(C4CCOC4)nc4c3cnn4C(C)C)c2)cc(OC)c1OC` (stereo not drawn) [Compound 45e, 1-isopropyl-6-(tetrahydrofuran-3-yl)-N-(1-(3,4,5-trimethoxyphenyl)-1H-imidazol-4-yl)-1H-pyrazolo[3,4-d]pyrimidin-4-amine] the figure was greater than 50%; with `C=C(C)c1nc(Nc2cn(-c3cc(OC)c(OC)c(OC)c3)cn2)c2cc(OC)c(OC)cc2n1` [Compound 65c, 6,7-dimethoxy-2-(prop-1-en-2-yl)-N-(1-(3,4,5-trimethoxyphenyl)-1H-imidazol-4-yl)quinazolin-4-amine], less than 50%.
For `CC[C@H](C)n1ncc2c(Nc3cn(-c4cc(OC)c(OC)c(OC)c4)cn3)nc(C(C)C)nc21` (single isomer, unassigned) [Compound 22d], the inhibition at 1 µM was greater than 50%.
In the case of `COc1cc(-n2cnc(Nc3nc(C4CCN(C)CC4)nc4c3cnn4C(C)C)c2)cc(OC)c1OC` [Compound 48a, 1-isopropyl-6-(1-methylpiperidin-4-yl)-N-(1-(3,4,5-trimethoxyphenyl)-1H-imidazol-4-yl)-1H-pyrazolo[3,4-d]pyrimidin-4-amine], the inhibition at 1 µM is greater than 50%.
With `COc1cc(-n2cnc(Nc3nc(C(C)C)nc4c3cnn4CC3CC3)c2)cc(OC)c1OC` [Compound 17c, 1-(cyclopropylmethyl)-6-isopropyl-N-(1-(3,4,5-trimethoxyphenyl)-1H-imidazol-4-yl)-1H-pyrazolo[3,4-d]pyrimidin-4-amine] the figure was greater than 50%; with `C=C(C)c1nc(Nc2cn(-c3cc(OC)c(OC)c(OC)c3)cn2)c2ccccc2n1` [Compound 70b, 2-(prop-1-en-2-yl)-N-(1-(3,4,5-trimethoxyphenyl)-1H-imidazol-4-yl)quinazolin-4-amine], greater than 50%.
In turn, `CC[C@@H](C)n1ncc2c(Nc3cn(-c4cc(OC)c(OC)c(OC)c4)cn3)nc(C(C)C)nc21` (single isomer, unassigned) [Compound 19d] returned an inhibition at 1 µM greater than 50%.
With `COc1cc(-n2cnc(Nc3nc(C4CC4)c4cnn(C(C)C)c4n3)c2)cc(OC)c1OC` [Compound 13b, 4-cyclopropyl-1-isopropyl-N-(1-(3,4,5-trimethoxyphenyl)-1H-imidazol-4-yl)-1H-pyrazolo[3,4-d]pyrimidin-6-amine] the figure was greater than 50%; with `CCCCCC(C)c1nc(Nc2cn(-c3cc(OC)c(OC)c(OC)c3)cn2)c2cnn(C(C)C)c2n1` (stereo not drawn) [Compound 59e, 6-(heptan-2-yl)-1-isopropyl-N-(1-(3,4,5-trimethoxyphenyl)-1H-imidazol-4-yl)-1H-pyrazolo[3,4-d]pyrimidin-4-amine], greater than 50%.

These data come from patent US20240270750A1, “IMIDAZOLE-CONTAINING INHIBITORS OF ALK2 KINASE” (BioCryst Pharmaceuticals, Inc., priority 2021, published 2024).
